From PMC449707 (BMC Pharmacology, 2004)

System: whole bone marrow cells
Assay: Fibroblastic colony forming unit
Format: cell-based, rat
Conditions: for effect on colony number of co-treatment with exogenous PGE2: 10 μM PDE inhibitor plus PGE2 as low as 0.1 nM; for effect on colony number, agent alone: 10 μM, CFU-f assay, no exogenous PGE2

Row | SMILES | effect on colony number of co-treatment with exogenous PGE2 | effect on colony number, agent alone
1 | CC(C)Cn1c(=O)n(C)c(=O)c2[nH]cnc21 [IBMX, isobutylmethylxanthine] | almost maximal responses | significant stimulation in colony number
2 | COc1ccc(C2CNC(=O)C2)cc1OC1CCCC1 (stereo not shown) [rolipram] | almost maximal responses | significant stimulation in colony number
